From patent US9523693B2, “Methods for determining ligand binding to a target protein using a thermal shift assay” (Biotarget Engagement Interest Group AB, priority 2011, dated 2016)
Values belong to the compound of their own block, whether it stands above or below them.

Experiments:
wild-type B-raf protein = wild-type B-raf protein (Homo sapiens, UniProt P15056); settings: K562 lysate
Description: (§1) Lysate was prepared from cultured human A375 cells containing the V600E substitution in B-raf and K562, containing the wild type version thereof. Cells were disrupted on ice in hypotonic buffer and with homogenisation. The suspensions were freeze-thawed multiple times and all insoluble aggregates and cell debris were pelleted by centrifugation after completed lysis. The supernatants containing optically clear cytosolic fraction were each aliquoted into two tubes where each tube contained either the ligand SB590885 dissolved in DMSO or pure DMSO for control. The samples were incubated and subsequently aliquoted into 8-tube PCR strips in fractions of 50 microliters. A series of temperatures were applied to the different samples ranging between +44° C. to +62° C. with 2° C. increments and a 3 minute hold at each temperature. Following heating, the samples were cooled and the precipitated protein pelleted by centrifugation. 20 microliter of each supernatant was removed and supplemented with gel loading buffer and fully denatured by heating. The samples were loaded on a separating gel, which after full run time was blotted onto a nitrocellulose membrane. The membrane was washed and blocked with blocking reagent and probed with primary and secondary antibodies. The signal from the bound secondary antibody was detected by chemiluminescense and recorded with a CCD camera. […]

[1] = target: V600E variant B-raf protein (Homo sapiens, UniProt P15056, V600E); settings: A375 lysate
V600E variant B-raf protein, sequence (P15056 whole entry V600E): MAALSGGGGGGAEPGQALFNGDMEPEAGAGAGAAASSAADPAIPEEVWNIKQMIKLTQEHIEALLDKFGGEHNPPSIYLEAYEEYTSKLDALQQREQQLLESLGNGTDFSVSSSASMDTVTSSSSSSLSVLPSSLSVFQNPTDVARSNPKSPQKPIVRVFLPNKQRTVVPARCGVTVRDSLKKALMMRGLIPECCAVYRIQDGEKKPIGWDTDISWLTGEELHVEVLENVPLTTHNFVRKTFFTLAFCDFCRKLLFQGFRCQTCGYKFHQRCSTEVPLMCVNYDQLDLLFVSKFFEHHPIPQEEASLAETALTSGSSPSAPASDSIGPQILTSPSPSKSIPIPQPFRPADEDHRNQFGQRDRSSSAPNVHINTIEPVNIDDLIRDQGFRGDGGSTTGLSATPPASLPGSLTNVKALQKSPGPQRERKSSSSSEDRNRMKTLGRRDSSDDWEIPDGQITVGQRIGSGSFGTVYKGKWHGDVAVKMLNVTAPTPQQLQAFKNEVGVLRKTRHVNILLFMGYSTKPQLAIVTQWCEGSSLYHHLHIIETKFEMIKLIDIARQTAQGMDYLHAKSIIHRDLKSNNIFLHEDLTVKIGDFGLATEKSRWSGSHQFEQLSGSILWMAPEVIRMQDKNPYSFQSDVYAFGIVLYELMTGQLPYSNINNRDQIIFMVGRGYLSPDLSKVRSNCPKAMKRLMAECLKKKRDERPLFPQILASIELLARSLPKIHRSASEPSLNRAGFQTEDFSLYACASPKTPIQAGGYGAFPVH
Description: as §1

[2] = target: T1, human soluble PIK3C3 protein (Homo sapiens, UniProt Q8NEB9); test: Thermal shift (lysis/filtration blot) in E. coli cells overexpressing PIK3C3 construct; assay type: cell-based; settings: 1 mM Compound 15e or 500 μM Wortmannin, without ligand ca +55°
T1 construct: expressed in transfected cells; host or cells: E. coli
T1 sequence (Q8NEB9 whole entry): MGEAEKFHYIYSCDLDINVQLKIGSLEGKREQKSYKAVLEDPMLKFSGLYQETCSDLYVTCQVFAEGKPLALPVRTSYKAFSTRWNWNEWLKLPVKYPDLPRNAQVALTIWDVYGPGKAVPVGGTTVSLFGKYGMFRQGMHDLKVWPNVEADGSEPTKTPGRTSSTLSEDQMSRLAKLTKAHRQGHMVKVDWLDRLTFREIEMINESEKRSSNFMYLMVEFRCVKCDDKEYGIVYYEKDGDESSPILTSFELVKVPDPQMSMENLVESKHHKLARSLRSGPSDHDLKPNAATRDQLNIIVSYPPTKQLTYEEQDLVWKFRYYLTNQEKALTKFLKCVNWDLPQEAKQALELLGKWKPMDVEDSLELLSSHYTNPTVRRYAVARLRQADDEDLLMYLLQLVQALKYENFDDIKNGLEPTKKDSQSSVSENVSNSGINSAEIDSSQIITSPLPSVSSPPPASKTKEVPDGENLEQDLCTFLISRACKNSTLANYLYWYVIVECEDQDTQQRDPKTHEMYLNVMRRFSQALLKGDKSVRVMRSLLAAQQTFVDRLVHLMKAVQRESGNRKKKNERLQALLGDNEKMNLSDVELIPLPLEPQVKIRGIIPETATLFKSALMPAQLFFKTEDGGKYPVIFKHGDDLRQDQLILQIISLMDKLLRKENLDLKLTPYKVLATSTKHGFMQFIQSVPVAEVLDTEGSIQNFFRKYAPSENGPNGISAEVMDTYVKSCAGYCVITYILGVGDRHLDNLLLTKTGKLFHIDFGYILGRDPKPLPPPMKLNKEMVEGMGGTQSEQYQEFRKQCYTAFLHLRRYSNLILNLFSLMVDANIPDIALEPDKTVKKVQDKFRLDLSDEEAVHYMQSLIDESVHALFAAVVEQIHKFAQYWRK
From the text: An expression construct of human soluble PIK3C3 protein in an expression vector with N-terminal His-tag was used to investigate a possible increase in melting temperature of the PIK3C3 construct after addition and binding of either of two PIK3C3 specific inhibitors; Wortmannin and Compound 15e. After treatment with or without one of the two inhibitors the cells expressing the PIK3C3 constructs were exposed to a panel of increasing temperatures and after each temperature step the cells expressing the proteins were spotted onto a “lysis/filtration sandwich” soaked in lysis buffer. By using this lysis/filtration step on the “lysis/filtration sandwich” the soluble protein (up to the construct's specific melting temperature) could be detected on a capturing nitrocellulose membrane as dark spots, whereas precipitated protein (i.e., above its specific melting temperature) was not able to pass through the filter membrane and could therefore not be detected. Melting temperatures of constructs treated with Compound 15e or Wortmannin were compared with those of untreated samples. […]

[3] = target: methionine-aminopeptidase-2 (Homo sapiens, UniProt P50579); test: Thermal shift in human K562 cell lysate, Western blot; assay type: binding
methionine-aminopeptidase-2 (Homo sapiens, UniProt P50579), sequence (P50579 whole entry): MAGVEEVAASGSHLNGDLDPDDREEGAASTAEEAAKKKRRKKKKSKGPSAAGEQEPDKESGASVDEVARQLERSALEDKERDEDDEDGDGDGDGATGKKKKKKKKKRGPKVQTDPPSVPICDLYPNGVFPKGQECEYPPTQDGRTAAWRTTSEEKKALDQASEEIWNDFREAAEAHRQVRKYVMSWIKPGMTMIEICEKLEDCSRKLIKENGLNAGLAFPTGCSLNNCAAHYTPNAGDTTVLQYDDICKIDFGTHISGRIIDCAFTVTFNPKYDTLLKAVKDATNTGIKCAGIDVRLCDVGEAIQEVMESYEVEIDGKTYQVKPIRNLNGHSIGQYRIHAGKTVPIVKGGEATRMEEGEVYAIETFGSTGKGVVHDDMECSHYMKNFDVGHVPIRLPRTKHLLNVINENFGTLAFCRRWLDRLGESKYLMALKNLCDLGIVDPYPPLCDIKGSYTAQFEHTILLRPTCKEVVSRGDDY
Description: (§2) Studies were done on cells from two different systems: a) intact cow liver biopsies incubated with TNP-470 and b) human cultured cells incubated with TNP-470. […] After treatment with or without the inhibitor, the samples were prepared and subjected to an array of increasing temperatures. The precipitated protein fraction was pelleted by means of centrifugation and the supernatant from each temperature step was analysed on gels and by Western blot. Melting temperatures of proteins treated with TNP-470 were compared to those of untreated samples.
(§3) Lysate was prepared for cultured human cells (K562) and cow liver samples by disruption on ice in hypotonic buffer and with homogenisation. The suspensions were freeze-thawed multiple times and all insoluble aggregates and cell debris were pelleted by centrifugation after completed lysis. The lysate of each cell type was divided into two aliquots, where one was supplemented with TNP-470 (dissolved in pure DMSO) and the other with an equivalent volume of pure DMSO. […]
(§4) Next, a series of temperatures were applied to different samples ranging between +56° C. to +88° C. with 2 or 4° C. increments and a 3 minute hold at each step. […] The signal from the bound secondary antibody was detected by chemiluminescense and recorded with a CCD camera. […]

[4] = target: T2, methionine-aminopeptidase-2 (Bos taurus, UniProt Q3ZC89); test: Thermal shift in cow liver lysate, Western blot; assay type: binding
T2 construct: Lysate was prepared for cultured human cells (K562) and cow liver samples; from tissue; host or cells: cow liver
T2 sequence (Q3ZC89 whole entry): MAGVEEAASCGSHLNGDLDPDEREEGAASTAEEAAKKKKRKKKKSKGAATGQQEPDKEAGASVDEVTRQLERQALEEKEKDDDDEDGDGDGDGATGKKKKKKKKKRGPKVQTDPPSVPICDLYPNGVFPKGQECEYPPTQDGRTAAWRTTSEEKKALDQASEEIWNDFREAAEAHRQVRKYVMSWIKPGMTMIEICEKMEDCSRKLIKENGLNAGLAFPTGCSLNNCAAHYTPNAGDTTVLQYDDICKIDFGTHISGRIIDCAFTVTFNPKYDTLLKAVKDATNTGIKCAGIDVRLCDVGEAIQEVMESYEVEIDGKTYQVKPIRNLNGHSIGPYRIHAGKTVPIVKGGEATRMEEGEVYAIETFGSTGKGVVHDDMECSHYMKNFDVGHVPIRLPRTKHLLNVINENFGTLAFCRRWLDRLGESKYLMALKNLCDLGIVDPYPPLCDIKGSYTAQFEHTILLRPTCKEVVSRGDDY
Description: as §2, §3, §4

[5] = target: T3, thymidylate synthase (TS) (Homo sapiens, UniProt P04818); test: Thermal shift in A549 cell lysate, Western blot, TS; assay type: binding; settings: ligand at 10 times the described IC50
T3 construct: Lysate was prepared from cultured human adenocarcinoma cells (A549); endogenous in cells; host or cells: A549
T3 sequence (P04818 2-313 limits assumed): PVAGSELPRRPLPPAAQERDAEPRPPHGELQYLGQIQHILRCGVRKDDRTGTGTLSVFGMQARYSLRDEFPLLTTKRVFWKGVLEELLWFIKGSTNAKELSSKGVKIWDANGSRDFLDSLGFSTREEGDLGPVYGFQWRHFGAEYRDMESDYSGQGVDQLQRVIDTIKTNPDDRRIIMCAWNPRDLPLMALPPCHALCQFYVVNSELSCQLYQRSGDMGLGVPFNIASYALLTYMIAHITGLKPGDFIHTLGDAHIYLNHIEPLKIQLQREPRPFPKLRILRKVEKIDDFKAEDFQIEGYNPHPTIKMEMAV
From the text: Cells were disrupted on ice in hypotonic buffer and with homogenisation. The suspensions were freeze-thawed multiple times and all insoluble aggregates and cell debris were pelleted by centrifugation after completed lysis.
The signal from the bound secondary antibody was detected by chemiluminescense and recorded with a CCD camera. The intensities were plotted to visualize the changes in melting temperature following ligand treatment.

p38α [6] = target: T4, p38α (Homo sapiens, UniProt Q16539); test: CETSA melting curve in HL-60 cells; assay type: cell-based; settings: for apparent Tagg value (average±s.d.): 20 μM compound
T4 construct: host or cells: HL-60
T4 sequence (Q16539 whole entry): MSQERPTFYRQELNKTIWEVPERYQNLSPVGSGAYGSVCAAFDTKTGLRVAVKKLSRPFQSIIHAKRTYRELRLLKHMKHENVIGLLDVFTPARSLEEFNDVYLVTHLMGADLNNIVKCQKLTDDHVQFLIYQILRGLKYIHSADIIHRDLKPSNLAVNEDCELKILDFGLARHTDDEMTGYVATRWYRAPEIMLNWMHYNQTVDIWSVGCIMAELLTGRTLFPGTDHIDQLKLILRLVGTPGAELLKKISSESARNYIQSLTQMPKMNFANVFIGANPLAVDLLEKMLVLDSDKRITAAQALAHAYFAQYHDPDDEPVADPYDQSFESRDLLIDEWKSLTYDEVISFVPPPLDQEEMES
Description: HL60 cells were expanded in cell culture medium to about 2 million cells per ml, where approximately 120 million cells were required to determine four melting curves. 15 ml of the 2 million HL60 cells/ml of suspension were added to four separate T75 flasks. […] The same volume of DMSO was added to the remaining flask as a control. The cell suspensions were mixed gently by pipetting. […] The cell suspension was then collected and cells were transferred to 15 ml conical tubes. Cell numbers were counted and cell viability assessed. The conical tubes were then centrifuged at 300 g for 3 minutes at room temperature to pellet the cells and the culture medium was discarded.
Cell pellets were then resuspended with 15 ml PBS and centrifuged for 3 minutes at 300 g at room temperature. 1 ml of PBS supplemented with protease inhibitors was added to each tube and the pellet resuspended. Each cell suspension was distributed into ten different 0.2 ml PCR tubes with 100 μl of cell suspension in each tube, with each of the ten tubes to be heated at a different temperature.
Immediately after hating, the tubes were removed and incubated at room temperature for 3 minutes. The samples were then snap-frozen.
The tubes were vortexed after being thawed and the cell lysates kept on ice after the last thawing. The cell lysates were then centrifuged at 20000 g for 20 minutes at 4° C. to pellet the cell debris. Finally, 90 μl of lysate was then transferred to a new tube for analysis.
Analysis was carried out using the alphascreen format. […] 4 μl of each solution was transferred from the PCR tubes to a separate well of a 384-well ProxiPlate. 5 μl of acceptor beads were added and the plate sealed with a Thermowell plate seal and agitated for 5 minutes at 500 rpm. The plate was then incubated for 2 hours at room temperature. 2 μl of donor beads were then added an the plate sealed and centrifuged at 100 g at room temperature for 10 seconds. The plate was then agitated for 5 minutes at 500 rpm. The plate was incubated at room temperature for at least 2 hours and chemiluminescence read using an Envision plate reader. […]

p38α [7] = target: T4, p38α; test: Homogeneous AlphaScreen-based CETSA screen in HL-60 cells; assay type: cell-based; settings: both screen concentrations, 10 and 50 μM, 50° C. 3 min
Description: HL-60 cells were expanded in cell culture medium to a density of approximately 1.5-2 million cells/ml. The cell suspension was collected and the cells transferred to 15 ml conical tubes. The tubes were then centrifuged at 300 g for 3 mins at room temperature and the media was discarded. The cell pellet was resuspended in media to a cell density of about 30 million cells/ml. […] The plates are sealed and stored. The Echo 550 acoustic liquid dispenser was used to place 20 nl of the 10 mM DMSO stock solution in each well of four separate Twin tec PCR plates in columns 1-11. […] The plates were shaken every 10 mins.
The plates were placed in a thermal cycler and heated for 3 mins at 50° C. and were then removed and placed in an aluminium block for 3 mins at room temperature.
140 μl of 1× PerkinElmer lysis buffer was added to all wells and the wells were mixed. 4 μl of the samples were transferred to quadrant one of the 384-well ProxiPlate. This was done for all 96-well plates. […] The chemiluminescence was read with a Envision plate reader and evaluated using data processing software as described previously.
The feasibility of applying the homogeneous assay for screen purposes was assessed by testing the homogeneous assay protocol to determine how this responds to the presence of a small set of test compounds taken from a diversity library. […]

p38α [8] = target: T4, p38α; test: Isothermal dose-response fingerprint (ITDRF CETSA) in HL-60 cells; assay type: cell-based; settings: HL-60 cells heated at 50° C.; western blot and AlphaScreen
Description: Thus, in this method, HL-60 cells were expanded in cell culture medium to a cell density of 1-2 million cells/ml using standard cell culture. The cell suspension was collected and transferred to 15 ml conical tubes. The conical tubes were centrifuged at 300 g for 3 minutes at room temperature and the medium discarded. The cell pellet was resuspended in fresh media to provide a cell density of approximately 40 million cells/ml. […] 100 DMSO was placed in columns 2-12. The stock solutions were serially diluted by transferring 50 from columns 1 to 2, mixing and then by continuing this process one column at a time until column 11, where a final 50 is removed and discarded. Column 12 acted as a control. A second plate was prepared as a backup by splitting the serial dilutions into the second plate. All the serially diluted solutions were diluted 50 fold by adding cell culture media. 5 μl of all diluted compound solutions were then transferred to a Twin.tec PCR plate. […] The plate was shaken every 10 minutes.
The PCR plate was then incubated in a thermal cycler (Techne) and heated for 3 minutes at 50° C. The plate was then placed in an aluminium block for 3 minutes to ensure consistent cooling.
Detection was then carried out using the AlphaScreen method. […] The Luminescence was read using an Envision plate reader and data software (e.g. GraphPad Orism) was used to evaluate the luminescence data. […]

wild-type B-raf protein, sequence (P15056 whole entry): as the sequence (P15056 whole entry V600E) above, with E600V counted along it

melting temperature after addition of inhibitor [2]: ~58 °C
SMILES: Oc1cccc(-c2nc(N3CCOCC3)c3sccc3n2)c1 [Compound 15e, 3-[4-(4-Morpholinyl)thieno[3,2-d]pyrimidin-2-yl]-phenol]

shift of the apparent Tagg (response) (p38α [6]; 20 μM): lack of a substantial response
thermal stabilization of p38α within the tested concentration range (p38α [8]): did not result in any stabilization
SMILES: Cc1cnc(Nc2ccc(F)cc2Cl)nc1-c1c[nH]c(C(=O)N[C@H](CO)c2cccc(Cl)c2)c1 [ERK 11e]
screen outcome (increase of the AlphaScreen signal vs DMSO-only controls) (p38α [7]): cannot be distinguished from the rest of the inactive compounds

apparent Tagg value (average±s.d.) (p38α [6]; AlphaScreen detection, no inhibitor 46.7±0.7): 59.2±0.9 °C
apparent Tagg value (average±s.d.) (p38α [6]; western blot detection, no inhibitor 48±0.8): 60.6±1.0 °C
screen outcome (increase of the AlphaScreen signal vs DMSO-only controls) (p38α [7]): stabilizing hits
SMILES: Cn1c(NC[C@@H](N)Cc2ccccc2)nc(-c2ccncc2)c(-c2ccc3ccccc3c2)c1=O [AMG-548]

The next lines start with the compound.

SMILES: CN(C)CCOc1ccc(-c2nc(-c3ccncc3)c(-c3ccc4c(c3)CC/C4=N\O)[nH]2)cc1 [SB590885]
increase in the melting temperature (wild-type B-raf protein): 3 °C
increase in the melting temperature [1]: ~6 °C

SMILES: CO[C@@H]1[C@H](OC(=O)NC(=O)CCl)CC[C@]2(CO2)[C@H]1[C@@]1(C)O[C@@H]1CC=C(C)C [TNP-470]
shift in melting temperature [3]: 18 °C
melting temperature after addition of ligand ([3]; without ligand 62° C.): 80 °C
shift in melting temperature [4]: 14 °
melting temperature after addition of ligand ([4]; without ligand 66° C.): 80 °C

SMILES: Cc1nc2ccc(CN(C)c3ccc(C(=O)N[C@@H](CCC(=O)O)C(=O)O)s3)cc2c(=O)[nH]1 [raltitrexed]
change of melting temperature of TS [5]: increased melting temperature
